Test results taken from patent US20040116420A1 (priority 2001, published 2004).

Tests used:
[1] = biological target: T1, HSV-1 protease (Human herpesvirus 1, UniProt P10210); assay: Enzymatic assay for HSV-1 protease (assembly) inhibitor, fluorescence polarization; format: biochemical; details: read-out: HSV-1 Enzyme inhibition IC50
T1 construct: 6xHis (N); made in house; host or cells: baculovirus expression system
Experimental: An enzymatic assay method for an HSV-1 protease (assembly) inhibitor
The activity of an assembly protease was determined by fluorescence polarization. Biotin-gamma-amino butyrate-[…]-DTAF was used as a fluorescent substrate in accordance with an HSV-1 release and cleavage site. […] Changes in the sizes of fluorescent substrate molecules that increased with the use of avidin as a reaction terminator were assayed by fluorescence polarization.
The test compound was dissolved in DMF, and the resultant was diluted 5-fold with an assay buffer. 6.5 μl thereof was added to wells of a 96-well plate (a U-bottomed 96-well plate, Coster) that had previously been blocked with a blocking solution (10 mM Tris-HCl (pH 8.0), 150 mM sodium chloride, 0.05% Tween 20, 1 mg/ml of BSA). The enzyme was diluted to 21.3 μg/ml with an assay buffer (1M sodium citrate, 50 mM sodium phosphate (pH 7.4), 100 mM sodium chloride, 20% glycerol, 2 mM TCEP), and 48.5 μl of the resultant was added to each well. The plate was incubated at room temperature for 30 minutes, and 10 μl of 62.5 μg/ml substrate solution was then added to each well. The plate was incubated at room temperature for 60 minutes, and 50 μl of 2 mg/ml avidin phosphate buffer solution (50 mM sodium phosphate, 100 mM sodium chloride (pH 7.4)) was added to each well. The activity was determined in comparison with a compound without protease inhibitor using a microplate reader for fluorescence polarization.
HSV-1 protease was purified from a vaculovirus that had expressed a DNA construct encoding the reading frame for HSV-1UL26. This construct had further encoded 6 histidine residues at the amino terminus of the protease. These additional histidine residues impart affinity ligands purified by nickel-nitriloacetic acid-agarose (Qiagen). The purified protease was stored as a stock solution for a 20 mM HEPES buffer (pH 8.5, containing 20% v/v glycerin). This stock solution was diluted with an assay buffer and then used in the enzyme reaction.
In accordance with the cleavage specificity of the HSV-1 protease at the “release site” of the assembled protein, a specific substrate was synthesized (Diianni et al., J. Biol. Chem. 268, 2048 (1993)). This assembly protein-release site had the sequence • HTYLQA*SEKFKMW • , and the substrate used was biotin-gamma-amino butyrate-HTYLQA*SERFRIK-DTAF. This is a standard method for peptide synthesis, for example, as in the a method described in “The Practice of Peptide Synthesis” (Bodansky and Bodansky (1984)). The product was stored as a 2.5 mg/ml stock solution in DMF. The resultant was diluted to 62.5 μg/ml with a phosphate buffer (50 mM sodium phosphate, 100 mM sodium chloride, (pH 7.4)) immediately before its use.
An assay buffer (1M sodium citrate, 50 mM sodium phosphate (pH 7.4), 100 mM sodium chloride, 20% glycerol, 2 mM TCEP) was used to dilute a stock solution for the enzyme and that for the inhibitor.

[2] = system: HSV-1; assay: Antiviral activity, HSV-1 in Vero cells, plaque method; format: cell-based; details: 90% inhibition of plaque formation
Experimental: An Assay Method for Antiviral Activity These complementary assay methods examine the capacity of a compound to inhibit the generation of new viruses and to inhibit the toxicity of the compound against the host cell. Toxicity indirectly decreases the generation of viruses. Thus, it is important to simultaneously conduct both assays in order to directly compare the results. The Vero cells were sown on a 96-well plate and then cultured overnight. The culture supernatant was removed, and 100 μl of 2% FBS-DMEM containing 50,000 plaque-forming units (hereinafter abbreviated as “pfu”) of HSV-1 was added. A viral solution was removed and 200 μl of 2% FBS-DMEM comprising a test compound was added. In this case, a substance to which 2% FBS-DMEM not comprising any test compound had been added was determined as a control. These infected cells were incubated in the presence of 5% CO2 at 37° C. for 20 hours, and the medium was once allowed to freeze at −80° C. The culture solution was dissolved, and the amount of viruses in the culture solution was assayed by the plaque method. The concentration of the test compound when it inhibited 90% of plaque formation relative to the control was determined to be EC 90.

[3] = Human alphaherpesvirus 1, 20 hours

T1 sequence (P10210 1-247): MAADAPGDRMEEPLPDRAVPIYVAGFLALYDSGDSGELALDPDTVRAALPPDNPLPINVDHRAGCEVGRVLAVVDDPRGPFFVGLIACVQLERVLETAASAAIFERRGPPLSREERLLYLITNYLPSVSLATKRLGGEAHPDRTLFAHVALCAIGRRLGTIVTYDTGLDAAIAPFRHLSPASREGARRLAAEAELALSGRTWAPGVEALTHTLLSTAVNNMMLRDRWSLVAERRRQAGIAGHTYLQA

In the case of `Cc1c(NC(=O)CCCNC(=O)c2ccncc2)ccc2nc(NC(C)(C)C(=O)N(C)CCc3ccccn3)oc(=O)c12`, the IC50 [1] is reported as 0.5 µM and the EC90 [2, 3] is reported as > 12.5 µM.

With `Cc1c(NC(=O)OC(C)(C)C)ccc2nc(NC(C)(C)C(=O)N(C)Cc3cccnc3)oc(=O)c12` [Compound No.117, {5-Methyl-2-[1-methyl-1-(methyl-pyridin-3-ylmethyl-carbamoyl)-ethylamino]-4-oxo-4H-benzo[d][1,3]oxazin-6-yl}-carbamic acid tert-butyl ester] the IC50 [1] was 0.7 µM and the EC90 [2, 3] was > 12.5 µM.

`Cc1c(NC(=O)OC(C)(C)C)ccc2nc(NC3(C(=O)N(C)Cc4cccnc4)CC3)oc(=O)c12` [Compound No.118, {5-Methyl-2-[1-(methyl-pyridin-3-ylmethyl-carbamoyl)-cyclopropylamino]-4-oxo-4H-benzo[d][1,3]oxazin-6-yl}-carbamic acid tert-butyl ester] was tested, and the IC50 [1] was 2.3 µM and the EC90 [2, 3] was > 12.5 µM.

For `Cc1c(NC(=O)OC(C)(C)C)ccc2nc(NC3(C(=O)N(C)Cc4cccnc4)CCCC3)oc(=O)c12` [Compound No.119, {5-Methyl-2-[1-(methyl-pyridin-3-ylmethyl-carbamoyl)-cyclopentylamino]-4-oxo-4H-benzo[d][1,3]oxazin-6-yl}-carbamic acid tert-butyl ester], the IC50 [1] was 0.7 µM and the EC90 [2, 3] was > 12.5 µM.

`Cc1c(NC(=O)OC(C)(C)C)ccc2nc(NC3(C(=O)N(C)Cc4ccncc4)CCCC3)oc(=O)c12` [Compound No.121, {5-Methyl-2-[1-(methyl-pyridin-4-ylmethyl-carbamoyl)-cyclopentylamino]-4-oxo-4H-benzo[d][1,3]oxazin-6-yl}-carbamic acid tert-butyl ester] gave an IC50 [1] of 2.8 µM and an EC90 [2, 3] of 11.5 µM.

For `Cc1c(NC(=O)OC(C)(C)C)ccc2nc(NC3(C(=O)N(C)CCc4ccccn4)CC3)oc(=O)c12` [Compound No.122, (5-Methyl-2-{1-[methyl-(2-pyridin-2-yl-ethyl)-carbamoyl]-cyclopropylamino}-4-oxo-4H-benzo[d][1,3]oxazin-6-yl)-carbamic acid tert-butyl ester], the IC50 [1] was 1.6 µM and the EC90 [2, 3] was > 12.5 µM.

`Cc1c(NC(=O)OC(C)(C)C)ccc2nc(NC3(C(=O)N(C)CCc4ccccn4)CCCC3)oc(=O)c12` [Compound No.123, (5-Methyl-2-{1-[methyl-(2-pyridin-2-yl-ethyl)-carbamoyl]-cyclopentylamino}-4-oxo-4H-benzo[d][1,3]oxazin-6-yl)-carbamic acid tert-butyl ester] was tested, and the IC50 [1] was 0.6 µM and the EC90 [2, 3] was 9.6 µM.

In the case of `Cc1c(NC(=O)OC(C)(C)C)ccc2nc(NC3(C(=O)N(C)CCc4ccccn4)CCCCC3)oc(=O)c12` [Compound No.124, (5-Methyl-2-{1-[methyl-(2-pyridin-2-yl-ethyl)-carbamoyl]-cyclohexylamino}-4-oxo-4H-benzo[d][1,3]oxazin-6-yl)-carbamic acid tert-butyl ester], the IC50 [1] is reported as 1 µM and the EC90 [2, 3] is reported as 6.1 µM.

With `Cc1c(NC(=O)OC(C)(C)C)ccc2nc(NC3(C(=O)N(C)CCc4cccnc4)CC3)oc(=O)c12` [Compound No.125, (5-Methyl-2-{1-[methyl-(2-pyridin-3-yl-ethyl)-carbamoyl]-cyclopropylamino}-4-oxo-4H-benzo[d][1,3]oxazin-6-yl)-carbamic acid tert-butyl ester] the IC50 [1] was 2.1 µM and the EC90 [2, 3] was > 12.5 µM.

For `Cc1c(NC(=O)OC(C)(C)C)ccc2nc(NC3(C(=O)N(C)CCc4cccnc4)CCCC3)oc(=O)c12` [Compound No.126, (5-Methyl-2-{1-[methyl-(2-pyridin-3-yl-ethyl)-carbamoyl]-cyclopentylamino}-4-oxo-4H-benzo[d][1,3]oxazin-6-yl)-carbamic acid tert-butyl ester], the IC50 [1] was 0.4 µM and the EC90 [2, 3] was 8.6 µM.

With `Cc1c(NC(=O)OC(C)(C)C)ccc2nc(NC3(C(=O)N(C)CCc4ccncc4)CC3)oc(=O)c12` [Compound No.127, (5-Methyl-2-{1-[methyl-(2-pyridin-4-yl-ethyl)-carbamoyl]-cyclopropylamino}-4-oxo-4H-benzo[d][1,3]oxazin-6-yl)-carbamic acid tert-butyl ester] the IC50 [1] was 1.8 µM and the EC90 [2, 3] was > 12.5 µM.

Work on `Cc1c(NC(=O)OC(C)(C)C)ccc2nc(NC3(C(=O)N(C)CCc4ccncc4)CCCC3)oc(=O)c12` [Compound No.128, (5-Methyl-2-{1-[methyl-(2-pyridin-4-yl-ethyl)-carbamoyl]-cyclopentylamino}-4-oxo-4H-benzo[d][1,3]oxazin-6-yl)-carbamic acid tert-butyl ester] yielded an IC50 [1] of 0.4 µM and an EC90 [2, 3] of 10.1 µM.

With `Cc1c(NC(=O)OC(C)(C)C)ccc2nc(NCC(=O)N(C)CCc3ccccn3)oc(=O)c12` [Compound No.130, [5-methyl-2-({[methyl-(2-pyridin-2-yl-ethyl)-carbamoyl]-methyl}-amino)-4-oxo-4H-benzo[d][1,3]oxazin-6-yl]-carbamic Acid Tert-Butyl Ester] the IC50 [1] was 0.4 µM and the EC90 [2, 3] was > 20 µM.

With `Cc1c(NC(=O)OC(C)(C)C)ccc2nc(N(C)CC(=O)N(C)CCc3ccccn3)oc(=O)c12` [Compound No.131, [5-Methyl-2-(methyl-{[methyl-(2-pyridin-2-yl-ethyl)-carbamoyl]-methyl}-amino)-4-oxo-4H-benzo[d][1,3]oxazin-6-yl]-carbamic acid tert-butyl ester] the IC50 [1] was 0.4 µM and the EC90 [2, 3] was > 20 µM.

`Cc1c(NC(=O)OC(C)(C)C)ccc2nc(N[C@H](C)C(=O)N(C)CCc3ccccn3)oc(=O)c12` [Compound No.132, (5-Methyl-2-{1R-[methyl-(2-pyridin-2-yl-ethyl)-carbamoyl]-ethylamino}-4-oxo-4H-benzo[d][1,3]oxazin-6-yl)-carbamic acid tert-butyl ester] was tested, and the IC50 [1] was 0.8 µM and the EC90 [2, 3] was 15.8 µM.

`Cc1c(NC(=O)OC(C)(C)C)ccc2nc(NCCC(=O)N(C)CCc3ccccn3)oc(=O)c12` [Compound No.133, (5-Methyl-2-{2-[methyl-(2-pyridin-2-yl-ethyl)-carbamoyl]-ethylamino}-4-oxo-4H-benzo[d][1,3]oxazin-6-yl)-carbamic acid tert-butyl ester] was tested, and the IC50 [1] was 0.9 µM and the EC90 [2, 3] was > 20 µM.

For `Cc1c(NC(=O)c2cccs2)ccc2nc(NC(C)(C)C(=O)N(C)CCc3ccccn3)oc(=O)c12` [Compound No.134, Thiophene-2-carboxylic Acid (5-methyl-2-{1-methyl-1-[methyl-(2-pyridin-2-yl-ethyl)-carbamoyl]-ethylamino}-4-oxo-4H-benzo[d][1,3]oxazin-6-yl)-amide], the IC50 [1] was 0.9 µM and the EC90 [2, 3] was > 12.5 µM.

With `Cc1c(NC(=O)c2cccs2)ccc2nc(N[C@@H](C)C(=O)N(C)CCc3ccccn3)oc(=O)c12` [Compound No.135, Thiophene-2-carboxylic acid (5-methyl-2-{1S-[methyl-(2-pyridin-2-yl-ethyl)-carbamoyl]-ethylamino}-4-oxo-4H-benzo[d][1,3]oxazin-6-yl)-amide] the IC50 [1] was 1.3 µM and the EC90 [2, 3] was > 12.5 µM.

For `CCC(CC)C(=O)Nc1ccc2nc(NC(C)(C)C(=O)N(C)CCc3ccccn3)oc(=O)c2c1C` [Compound No.197, 2-Ethyl-N-(5-methyl-2-{1-methyl-1-[methyl-(2-pyridin-2-yl-ethyl)-carbamoyl]-ethylamino}-4-oxo-4H-benzo[d][1,3]oxazin-6-yl)-butylamide], the IC50 [1] was 7.2 µM and the EC90 ([2]; 20 hours) was ≥ 12.5 µM.
